Experimental data reported in patent publication US8278100B2, “Lasonolide compounds as reagents for inducing premature chromosome condensation and methods for treating disorders” (The United States of America, as Represented by the …, priority 2008, dated 2012).
Where “and” joins values, the source holds several entries; their conditions need not be identical. Equal entries are not always repeated. Entries after “also recorded” stand apart in the source; their conditions may differ.

Legend:
chromatin condensation = test: DNase I sensitivity assay; format: cell-based; settings: 1 h
Procedure: Cells were treated with different concentrations of Lasonolide A for 1 h and were collected with centrifuging. The centrifuged cells were washed with PBS and fixed with 1.5% PFA for 15 min on ice. After washing by PBS, fresh PBS was added (300 μL) to re-suspend the pellet, then 700 μL 70% EtOH was gently added and the mixture was maintained at −20° C. overnight. The solution was washed by PBS once, then washed by 1× DNase I reaction buffer (500 μL), then incubated in 200 μL Reaction buffer with 4 Units DNase I (2 μL), 37° C., 10 min. The solution was washed by PBS and incubated in 100 μL Polymerase reaction buffer including 16 μM dATP, 16 μM dCTP, 16 μM dGTP, 16 μM dUTP-FITC, 100 unit/mL Polymerase I, 37° C. 60 min. FL1 channel of Green fluorescence signal were measured with flow cytometer (FIG. 1C).

CA 46 cells = test: BrdU incorporation; format: cell-based, human
Procedure: (§1) A number of cells (5×10^5) were pulse-labeled with 50 μmol/L BrdU (Calbiochem, La Jolla, Calif.) for 30 minutes. Cells were collected, fixed in 70% ethanol at 4° C., washed with PBS, resuspended in 3 mL 2 mol/L HCl/0.5% Triton X-100, and left at room temperature for 30 minutes. Cells were spun down after adding 6 mL 0.1 M sodium borate (pH 8.5). Pellets were washed with PBS/0.5% Tween-20 twice, then resuspended in 15 μL FITC-conjuncted anti-BrdU antibody (Becton Dickinson, Franklin Lakes, N.J.). After incubation with the anti-BrdU antibody at room temperature for 60 minutes, pellets were washed once with PBS, and resuspended in 500 μL of PI solution (50 μg/mL PI and 50 μg/mL RNase). Analyses were done with a FACScan flow cytometer (Becton Dickinson, San Jose, Calif.) (FIG. 2B).

MDA-MB-231 cells [1] = test: BrdU incorporation; format: cell-based, human
Procedure: as §1

MDA-MB-231 cells [2] = test: Cell adhesion assay; format: cell-based, human
Procedure: The effect of Lasonolide A on the extracellular matrix-induced cell adhesion was determined as follows. Fibronectin or collagen was diluted in sterile water and applied to 96-well plates overnight at 4° C. Nonspecific binding sites were blocked with 1% bovine serum albumin for 1 h at room temperature. Breast cancer MDA-MB-231 cells were serum starved for 45 min, detached with 2 mmol/L EDTA in PBS, plated in triplicate onto wells in serum-free medium with or without Lasonolide A, and allowed to adhere for 1 h at 37° C. Nonadherent cells were washed away and adherent cells were fixed with 4% paraformaldehyde and stained with 0.1% crystal violet in 2% methanol. Following extensive washing with tap water, dye was extracted with 10% acetic acid and quantified by measuring absorbance at 595 nm on a multiwell spectrophotometer (VersaMax, Molecular Devices). (FIGS. 6A, 6B, & 6D)

[3] = tested on: Burkitt's Lymphoma CA46 cells; test: PCC induction and PI staining; format: cell-based, human; settings: 1 h
Procedure: (§2) Burkitt's Lymphoma CA46 cells (500,000) (FIG. 1B) or breast cancer MDA-MB-231 cells (500,000) (FIG. 1A) were treated by 100 nM Lasonolide A (stock solution 100 μM in DMSO) for 1 h. Lymphocytes were treated with 200 nM Lasonolide A for 1 h. Cells were harvested with centrifuging on 2,000 rpm for 5 min at 4° C. Pellets were washed once by PBS and re-suspended in 1 mL PBS. 200 μL cells mixture were added to the chamber for cytospining. Cells were cytospun on 800 rpm for 10 min; slides were fixed in fresh-made 4% paraformaldehyde fixation for 20 min at room temperature, then moved to 70% ethanol for 20 min. Slides were stained with Propidium Iodide (“PI”) (20 μg/mL) and RNase A (100 μg/mL) for 15 min. Slides were washed with PBS for three times and mounted with Vectashield anti-fade mounting media (Vector Laboratories, Inc., Burlingame, Calif.). Images were taken using a Nikon Eclipse TE-300 confocal microscope.

[4] = tested on: breast cancer MDA-MB-231 cells; test: PCC induction and PI staining; format: cell-based, human; settings: 1 h
Procedure: as §2

MDA-MB-231 cells [5] = test: Transwell migration assay; format: cell-based, human; settings: 6 h
Procedure: The effect of Lasonolide A on the migration of breast cancer MDA-MB-231 cells was determined in a transwell Boyden Chamber (Costar, Mass.) using a polycarbonate filter with a pore size of […], which was coated with 0.2% gelatin, balancing with gelatin at 37° C. for 1 h, then removal of the gelatin and covering with DMEM without serum overnight at 37° C. In the standard assay, after removing medium, 0.1 mL of cell suspension (1×10^5 cells/ml, in serum-free medium) with Lasonolide A or 0.1% DMSO (v/v) was added to the upper compartment of the chamber. The lower compartment contained 0.6 mL of DMEM medium supplemented with 20% serum. After incubation for 6 h at 37° C., the filter was removed and fixed with ethanol. Cells remaining on the upper surface of the filter (non-migrated) were scraped gently. Then, migrated cells on the lower surface of the filter were stained with 0.1% crystal violet and taken photographs under microscope (FIG. 6C).

MCF-7 cells = test: BrdU incorporation; format: cell-based
Procedure: as §1

CA46 cells = test: Cell cycle analysis; format: cell-based, human; settings: 24 h treatment
Procedure: (§3) After treatment, cells were collected, washed twice with ice-cold PBS, and fixed overnight with 70% precooled (−20° C.) ethanol. Fixed cells were resuspended in PBS containing 0.02 mg/mL RNase A (Roche, USA) and incubated at 37° C. for 15 min. Next, the cells were stained with 0.01 mg/mL propidium iodide (Sigma) in the dark at room temperature for 10 min. The DNA content was analyzed by flow cytometry using a FACSCalibur (Becton Dickinson, Sunnyvale, Calif.) with Cellquest and Modfit LT3.0 software (Becton Dickinson) (FIGS. 1D & 2A).

MDA-MB-231 cells [6] = test: Cell cycle analysis; format: cell-based, human; settings: 24 h treatment
Procedure: as §3

## C=C(CCC(C)C)COC(=O)[C@H](O)C/C=C\C[C@@H]1O[C@@H]2/C=C/C/C=C/C(C)=C\[C@H]3O[C@@H](C/C=C/C=C/C(=O)O[C@H](C2)[C@@]1(C)CO)C[C@H](O)[C@H]3C [Lasonolide A]
Chromatin condensation; 100 nM
  DNase I sensitivity, fluorescence shift: evidence of an effect
Chromatin condensation; 200 nM
  DNase I sensitivity, fluorescence shift: a greater change, affecting signal amplitude
CA 46 cells
  DNA replication (BrdU incorporation): decelerated DNA replication
MDA-MB-231 cells [1]
  DNA replication (BrdU incorporation): decelerated DNA replication
MDA-MB-231 cells [2]; collagen I
  attachment of cells to collagen I: blocked; also recorded: reduced
MDA-MB-231 cells [2]; fibronectin
  attachment of cells to fibronectin: blocked; also recorded: reduced
MDA-MB-231 cells [2]; low dose, short-time treatment, nanomolar concentration
  cell adhesion / detachment: inhibited adhesion; also recorded: detached cells into suspension
[3]; 100 nM Lasonolide A
  cells with premature chromosome condensation (PCC): 97.9% and 99.5%
[3]; 100 nM
  PCC induction (in words): induced premature chromosome condensation (PCC)
[4]; 100 nM
  PCC induction (in words): induced premature chromosome condensation (PCC)
[4]
  cells with PCC: 13%
MDA-MB-231 cells [5]
  cell migration: inhibited migration
MCF-7 cells
  DNA replication (BrdU incorporation): decelerated DNA replication
CA46 cells
  cell cycle arrest: induced cell cycle arrest at G2/M phase
MDA-MB-231 cells [6]
  cell cycle arrest: induced cell cycle arrest at G2/M phase
